Data taken from patent publication EP2253620B1, “SUBSTITUTED 3-CYANOQUINOLINES AS PROTEIN TYROSINE KINASES INHIBITORS” (Wyeth Holdings LLC, priority 1998, dated 2000).
Values after ≈ are worked out from the molar mass of the structure shown. Where two headings read alike, the source gives them in different places.

Experiments:
[1] = target: T1, epidermal growth factor receptor kinase (Homo sapiens, UniProt P00533); assay: Inhibition of Epidermal Growth Factor Receptor Kinase (EGF-R) using recombinant enzyme; type: biochemical; settings: averages of the individual determinations
T1 construct: containing the EGFR cDNA encoding amino acids 645 - 1186 preceded by Met-Ala-(His)6; made in house; host or cells: Sf9 insect cells, recombinant baculovirus vHcEGFR52
T1 sequence (P00533 669-1210): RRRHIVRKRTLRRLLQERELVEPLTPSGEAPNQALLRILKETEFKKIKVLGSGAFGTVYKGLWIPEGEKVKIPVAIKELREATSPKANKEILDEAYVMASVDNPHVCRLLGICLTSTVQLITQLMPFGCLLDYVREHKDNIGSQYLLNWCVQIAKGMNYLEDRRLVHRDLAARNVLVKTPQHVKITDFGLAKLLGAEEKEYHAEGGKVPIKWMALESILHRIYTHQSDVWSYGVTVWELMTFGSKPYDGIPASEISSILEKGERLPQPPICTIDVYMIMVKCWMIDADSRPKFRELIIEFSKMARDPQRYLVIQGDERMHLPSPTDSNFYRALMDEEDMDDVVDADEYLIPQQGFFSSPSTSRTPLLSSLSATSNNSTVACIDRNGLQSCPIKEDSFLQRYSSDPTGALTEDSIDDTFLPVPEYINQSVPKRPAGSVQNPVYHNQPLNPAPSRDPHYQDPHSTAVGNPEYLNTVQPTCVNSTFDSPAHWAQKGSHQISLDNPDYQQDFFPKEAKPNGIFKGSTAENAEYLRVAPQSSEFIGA
Experimental: Representative test compounds were evaluated for their ability to inhibit the phosphorylation of the tyrosine residue of a peptide substrate catalyzed by the enzyme epidermal growth factor receptor kinase. […] The enzyme used in this assay is the His-tagged cytoplasmic domain of EGFR. A recombinant baculovirus (vHcEGFR52) was constructed containing the EGFR cDNA encoding amino acids 645 - 1186 preceded by Met-Ala-(His)6. Sf9 cells in 100 mm plates were infected at an moi of 10 pfu/cell and cells were harvested 48 h post infection. A cytoplasmic extract was prepared using 1% Triton X-100 and applied to Ni-NTA column. After washing the column with 20 mM imidazole, HcEGFR was eluted with 250 mM imidazole (in 50 mM Na2HPO4, pH 8.0, 300 mM NaCl). Fractions collected were dialyzed against 10 mM HEPES, pH 7.0, 50 mM NaCl, 10% glycerol, 1ug/mL antipain and leupeptin and 0.1 mM Pefabloc SC. The protein was frozen in dry ice/methanol and stored -70°C.
Test compounds were made into 10 mg/mL stock solutions in 100% dimethylsulfoxide (DMSO). Prior to experiment, stock solutions were diluted to 500 uM with 100% DMSO and then serially diluted to the desired concentration with HEPES buffer (30 mM HEPES pH 7.4).
For the enzyme reaction, 10 µL of each inhibitor (at various concentrations) were added to each well of a 96-well plate. To this was added 3 µL of enzyme (1:10 dilution in 10mM HEPES, pH 7.4 for final conc. of 1:120). This was allowed to sit for 10 min on ice and was followed by the addition of 5 µl peptide (80 µM final conc.), 10 µl of 4X Buffer (Table A), 0.25 µL ^33P-ATP and 12 µL H2O. The reaction was allowed to run for 90 min at room temperature and was followed by spotting the entire volume on to precut P81 filter papers. The filter discs were washed 2X with 0.5% phosphoric acid and radioactivity was measured using a liquid scintillation counter.
The % inhibition of the test compound was determined for at least three different concentrations and the IC50 value was evaluated from the dose response curve. […] CPM(control) is in units of counts per minute and was a number expressing the amount of radiolabled ATP (g-^33P) incorporated into the RR-SRC peptide substrate by the enzyme after 90 minutes at room temperature in the absence of test compound as measured by liquid scintillation counting. The CPM values were corrected for the background counts produced by ATP in the absence of the enzymatic reaction. The IC50 values in TABLE 1 are averages of the individual determinations.

[2] = target: Epithelial Cell Kinase (ECK) (Homo sapiens, UniProt P29317); assay: Inhibition of Epithelial Cell Kinase (ECK) tyrosine kinase activity; type: biochemical
Epithelial Cell Kinase (ECK), sequence (P29317 24-976, species assumed): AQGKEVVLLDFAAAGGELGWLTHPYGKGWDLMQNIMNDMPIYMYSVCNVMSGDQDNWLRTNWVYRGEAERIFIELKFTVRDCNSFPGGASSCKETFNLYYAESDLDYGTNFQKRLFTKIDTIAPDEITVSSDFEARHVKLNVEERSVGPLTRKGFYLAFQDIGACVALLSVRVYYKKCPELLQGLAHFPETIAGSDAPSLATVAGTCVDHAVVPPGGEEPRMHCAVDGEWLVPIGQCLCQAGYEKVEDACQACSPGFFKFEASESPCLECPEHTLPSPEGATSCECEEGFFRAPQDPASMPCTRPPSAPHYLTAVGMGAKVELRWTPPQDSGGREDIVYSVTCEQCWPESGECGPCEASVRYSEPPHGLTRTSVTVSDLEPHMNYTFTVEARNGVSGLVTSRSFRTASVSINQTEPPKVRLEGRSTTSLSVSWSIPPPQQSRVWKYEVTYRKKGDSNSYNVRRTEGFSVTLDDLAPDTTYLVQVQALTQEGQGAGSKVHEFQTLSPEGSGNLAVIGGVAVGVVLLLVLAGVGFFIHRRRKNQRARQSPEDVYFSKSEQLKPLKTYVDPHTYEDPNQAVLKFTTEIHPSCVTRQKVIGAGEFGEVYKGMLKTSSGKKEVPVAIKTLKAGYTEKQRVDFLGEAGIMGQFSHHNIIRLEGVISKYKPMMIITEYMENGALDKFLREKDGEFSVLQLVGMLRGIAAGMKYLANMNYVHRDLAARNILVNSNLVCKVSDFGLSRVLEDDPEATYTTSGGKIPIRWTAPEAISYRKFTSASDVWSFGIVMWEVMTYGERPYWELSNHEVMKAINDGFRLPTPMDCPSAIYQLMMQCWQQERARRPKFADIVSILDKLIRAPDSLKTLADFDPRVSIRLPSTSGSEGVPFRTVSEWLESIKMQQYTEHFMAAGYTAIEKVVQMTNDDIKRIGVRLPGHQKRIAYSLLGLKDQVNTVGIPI
Experimental: In this standard pharmacological test procedure, a biotinylated peptide substrate is first immobilized on neutravidin-coated microtiter plates. The test drug, the Epithelial Cell Kinase (ECK), Mg^++, sodium vanadate (a protein tyrosine phosphatase inhibitor), and an appropriate buffer to maintain pH (7.2) are then added to the immobilized substrate-containing microtiter wells. ATP is then added to initiate phosphorylation. After incubation, the assay plates are washed with a suitable buffer leaving behind phosphorylated peptide which is exposed to horse radish peroxidase (HRP)-conjugated anti-phosphotyrosine monoclonal antibody. The antibody-treated plates are washed again and the HRP activity in individual wells is quantified as a reflection of degree of substrate phosphorylation. […] Multiple entries for a given compound indication it was tested multiple times.

Mek and Erk = Mek and Erk (Homo sapiens, UniProt P28482+Q02750); assay: Mitogen Activated Protein Kinase (MAPK) coupled assay (Mek-Erk); type: biochemical
Mek and Erk, sequence (Q02750 whole entry): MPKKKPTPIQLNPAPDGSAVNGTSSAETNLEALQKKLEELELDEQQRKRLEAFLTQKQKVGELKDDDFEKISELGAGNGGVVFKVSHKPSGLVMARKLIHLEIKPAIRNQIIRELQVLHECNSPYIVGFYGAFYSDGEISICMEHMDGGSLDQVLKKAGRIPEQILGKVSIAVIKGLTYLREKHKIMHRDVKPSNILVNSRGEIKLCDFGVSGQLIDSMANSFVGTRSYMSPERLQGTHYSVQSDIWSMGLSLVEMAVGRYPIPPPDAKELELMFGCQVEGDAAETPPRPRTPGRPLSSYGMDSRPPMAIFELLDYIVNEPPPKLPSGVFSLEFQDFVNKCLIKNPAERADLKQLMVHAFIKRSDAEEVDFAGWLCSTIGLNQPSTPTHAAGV
Mek and Erk, sequence (P28482 2-360): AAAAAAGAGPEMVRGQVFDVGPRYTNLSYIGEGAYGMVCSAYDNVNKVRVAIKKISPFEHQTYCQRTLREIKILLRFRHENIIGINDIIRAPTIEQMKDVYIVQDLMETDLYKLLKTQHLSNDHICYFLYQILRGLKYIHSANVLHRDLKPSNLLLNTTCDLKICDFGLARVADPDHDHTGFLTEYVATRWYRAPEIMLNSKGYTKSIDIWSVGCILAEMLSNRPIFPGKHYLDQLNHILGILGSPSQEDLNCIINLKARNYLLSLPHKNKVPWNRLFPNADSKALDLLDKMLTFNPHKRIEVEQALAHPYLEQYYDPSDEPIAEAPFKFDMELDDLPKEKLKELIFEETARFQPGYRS
Experimental: Mitogen Activated Protein Kinase (MAPK) Assay
To evaluate inhibitors of the MAP (mitogen activated protein) kinase a two component coupled standard pharmacological test procedure, which measures phosphorylation of a serine/threonine residue in an appropriate sequence in the substrate in the presence and absence of a putative inhibitor, was used. Recombinant human MEK 1 (MAPKK) was first used to activate recombinant human ERK2 (MAPK) and the activated MAPK (ERK) was incubated with substrate (MBP peptide or MYC peptide) in the presence of ATP, Mg^+2 and radiolabeled ^33P ATP. The phosphorylated peptide was captured on a P 81 phosphocellulose filter (paper filter or embedded in microtiter plate) washed and counted by scintillation methods.
The peptide substrates used in the assay are MBP, peptide substrate ([…]), or synthetic Myc substrate, ([…]•5 TFA. The recombinant enzymes used were prepared as GST fusion proteins of human ERK 2 and human MEK 1. Inhibitor samples were prepared as 10X stocks in 10% DMSO and an appropriate aliquot was used to deliver either 10 ug/ml for a single point screening dose or 100, 10, 1, and 0.1 uM final concentration for a dose response curve. Final DMSO concentrations were less than or equal to 1%.
The reaction was run as follows in 50 mM Tris kinase buffer, pH 7.4 in a reaction volume of 50 ul. The appropriate volume of kinase buffer and inhibitor sample was added to the tube. Appropriate dilution of enzyme was delivered to give 2-5 ug recombinant MAPK (Erk ) per tube. The inhibitor was incubated with MAPK (Erk) for 30 min at 0 deg. C. Recombinant Mek (MAPKK) ( 0.5-2.5 ug) or fully activated Mek (0.05-0.1 units) was added to activate the Erk and incubated for 30 min at 30° C. Then substrate and gamma ^33P ATP was were added to give a final concentration of 0.5- 1 mM MBPP or 250-500 uM Myc; 0.2-0.5 uCi gamma P 33 ATP/tube; 50 µM ATP final concentration. Samples were incubated at 30°C for 30 minutes and the reaction was stopped by adding 25 µl of ice cold 10 %TCA .After samples were chilled on ice for 30 min, 20 µl of sample was transferred onto P 81 phosphocellulose filter paper or appropriate MTP with embedded P 81 filter. Filter papers or MTP were washed 2 times with a large volume of 1% acetic acid, then 2 times with water. The filters or MTP were briefly air dried before addition of scintillant and samples were counted in the appropriate scintillation counter set up for reading ^33P isotope. Samples included a positive control (activated enzyme plus substrate); a no enzyme control; a no substrate control; samples with different concentrations of putative inhibitor; and samples with reference inhibitors (other active compounds or non-specific inhibitors such as staurosporine or K252 B).
The raw data was captured as cpm. Sample replicates were averaged and corrected for background count. Mean cpm data was tabulated by group and % inhibition by a test compound was calculated as (corrected cpm control- corrected. cpm sample/control) X 100 = % inhibition. […] The results obtained for representative compounds of this invention are listed in TABLE 2 where there may be separate entries for the same compound; this is an indication that the compound was evaluated more than one time.

erbB2 = erbB2 (Homo sapiens, UniProt P04626); assay: erbB2 inhibition at a single concentration; type: biochemical; settings: read-out: erbB2 % Inh 2 µg/mL
erbB2, sequence (P04626 23-1255): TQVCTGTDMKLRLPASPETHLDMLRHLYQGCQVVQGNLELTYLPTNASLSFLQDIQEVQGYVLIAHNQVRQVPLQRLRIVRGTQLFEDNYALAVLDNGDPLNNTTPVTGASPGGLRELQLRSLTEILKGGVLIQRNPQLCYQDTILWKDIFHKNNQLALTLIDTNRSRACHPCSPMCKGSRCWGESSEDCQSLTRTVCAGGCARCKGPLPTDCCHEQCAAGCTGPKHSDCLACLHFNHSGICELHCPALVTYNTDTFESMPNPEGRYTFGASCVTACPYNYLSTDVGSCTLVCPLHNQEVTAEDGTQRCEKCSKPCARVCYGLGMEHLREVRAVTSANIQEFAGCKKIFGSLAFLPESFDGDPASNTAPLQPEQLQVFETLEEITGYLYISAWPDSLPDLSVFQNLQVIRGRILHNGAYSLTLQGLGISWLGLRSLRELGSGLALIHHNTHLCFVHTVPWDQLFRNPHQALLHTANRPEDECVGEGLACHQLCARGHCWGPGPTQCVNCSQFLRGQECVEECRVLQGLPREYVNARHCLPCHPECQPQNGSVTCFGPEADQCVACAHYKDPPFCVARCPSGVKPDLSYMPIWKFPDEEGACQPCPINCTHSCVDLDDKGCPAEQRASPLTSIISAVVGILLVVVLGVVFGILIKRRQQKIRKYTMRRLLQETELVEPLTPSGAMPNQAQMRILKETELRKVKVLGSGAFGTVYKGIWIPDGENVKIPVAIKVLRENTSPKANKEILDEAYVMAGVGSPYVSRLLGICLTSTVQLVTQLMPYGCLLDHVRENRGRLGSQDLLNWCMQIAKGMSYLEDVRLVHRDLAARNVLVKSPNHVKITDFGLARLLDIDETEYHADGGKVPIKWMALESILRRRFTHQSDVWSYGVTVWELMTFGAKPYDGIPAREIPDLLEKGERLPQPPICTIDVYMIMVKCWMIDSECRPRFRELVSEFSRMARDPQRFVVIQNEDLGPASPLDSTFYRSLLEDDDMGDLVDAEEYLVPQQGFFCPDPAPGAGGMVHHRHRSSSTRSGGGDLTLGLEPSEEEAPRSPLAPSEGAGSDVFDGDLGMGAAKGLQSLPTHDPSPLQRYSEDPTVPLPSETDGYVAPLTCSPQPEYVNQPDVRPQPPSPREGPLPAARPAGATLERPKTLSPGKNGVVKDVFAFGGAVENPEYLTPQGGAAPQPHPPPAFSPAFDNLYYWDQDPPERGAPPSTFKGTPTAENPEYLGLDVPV

A431 = assay: Inhibition of Cancer Cell Growth as Measured by Cell Number; type: cell-based, Human; settings: Homo sapiens, A-431; 48 hours exposure, Sulforhodamine B
Experimental: (§1) Inhibition of Cancer Cell Growth as Measured bv Cell Number
(§2) Human tumor cell lines were plated in 96-well plates (250 µl/well, 1-6 x 10^4 cells/ml) in RPMI 1640 medium, containing 5% FBS (Fetal Bovine Serum). […] After 48 hours exposure to test compounds, cells were fixed with trichloroacetic acid, and stained with Sulforhodamine B. After washing with trichloroacetic acid, bound dye was solubilized in 10 mM Tris base and optical density was determined using plate reader. Under conditions of the assay the optical density is proportional to the number of cells in the well. […] The test procedure is described in details by Philip Skehan et. al, J.Natl. Canc. Inst., 82, 1107-1112 (1990). […] Information about some of the cell lines used in these test procedures is available from the American Type Tissue Collection: Cell Lines and Hybridomas, 1994 Reference Guide, 8th Edition.

MDAMB435 = assay: as above; type: cell-based, Human; settings: Homo sapiens, MDA-MB-435; 48 hours exposure, Sulforhodamine B
Experimental: as §1, §2

SKBR3 = assay: as above; type: cell-based, Human; settings: Homo sapiens, SK-BR-3; 48 hours exposure, Sulforhodamine B
Experimental: as §1, §2

SW620 = assay: as above; type: cell-based, Human; settings: Homo sapiens, SW-620; 48 hours exposure, Sulforhodamine B
Experimental: as §1, §2

[3] = coupled MEK 1 / ERK2; separate entries = separate tests; read-out: Mek and Erk

SMILES	IC50 [1] [nM]	IC50 (Mek and Erk; [3]) [nM]	inhibition at 2 µg/mL (erbB2) [%]	IC50 (A431) [µg/mL]	IC50 (MDAMB435) [µg/mL]	IC50 (SKBR3) [µg/mL]	IC50 (SW620) [µg/mL]	other results
COc1cc2ncc(C#N)c(Nc3ccc(F)c(Cl)c3)c2cc1NC(=O)C=CC[n+]1cscc1C [Example 96, 3-{3-[4-(3-Chloro-4-fluoro-phenylamino)-3-cyano-7-methoxy-quinolin-6-ylcarbamoyl]-allyl}-4-methyl-thiazol-3-ium bromide]	100							
COCOCC#CC(=O)Nc1ccc2ncc(C#N)c(Nc3cccc(Br)c3)c2c1 [Example 74, 4-Methoxymethoxy-but-2-ynoic acid [4-(3-bromo-phenylamino)-3-cyano-quinolin-6-yl]-amide]		> 100000	95					IC50 [2]: > 43000 nM
COCCN(CC#CC(=O)Nc1ccc2ncc(C#N)c(Nc3cccc(Br)c3)c2c1)CCOC [Example 75, N-[4-[(3-Bromophenyl)amino]-3-cyano-6-quinolinyl]-4-(bis-(2-methoxyethyl)amino)-2-butynamide]	0.4	100000		0.1 (≈ 0.186 µM)	0.2 (≈ 0.373 µM)	0.04 (≈ 0.0746 µM)	0.5 (≈ 0.932 µM)	
COCCN(C)CC#CC(=O)Nc1ccc2ncc(C#N)c(Nc3cccc(Br)c3)c2c1 [Example 76, N-[4-[(3-Bromophenyl)amino]-3-cyano-6-quinolinyl]-4-(N-methoxyethyl-N-methylamino)-2-butynamide]	10	> 100000	96	0.05 (≈ 0.102 µM)	0.284 (≈ 0.577 µM)	0.031 (≈ 0.063 µM)	0.239 (≈ 0.485 µM)	
COCCOCC#CC(=O)Nc1ccc2ncc(C#N)c(Nc3cccc(Br)c3)c2c1 [Example 72, 4-(2-Methoxy-ethoxy)-but-2-ynoic acid [4-(3-bromo-phenylamino)-3-cyano-quinolin-6-yl]-amide]	6	> 100000	96	0.9 (≈ 1.88 µM)	3.5 (≈ 7.3 µM)	0.8 (≈ 1.67 µM)	0.4 (≈ 0.834 µM)	IC50 [2]: > 41700 nM
COc1cc2ncc(C#N)c(Nc3ccc(F)c(Cl)c3)c2cc1NC(=O)C=CCN(CC(C)O)CC(C)O (centres unmarked) [Example 115, 4-[Bis-(2-hydroxy-propyl)-amino]-but-2-enoic acid [4-(3-chloro-4-fluoro-phenylamino)-3-cyano-7-methoxy-quinolin-6-yl]-amide]	5							
COc1cc2ncc(C#N)c(Nc3ccc(F)c(Cl)c3)c2cc1NC(=O)C=CCN1CCN(CCO)CC1 [Example 108, 4-[4-(2-Hydroxy-ethyl)-piperazin-1-yl]-but-2-enoic acid [4-(3-chloro-4-fluoro-phenylamino)-3-cyano-7-methoxy-quinolin-6-yl]-amide]	26							
CN1CCC=C(C(=O)Nc2ccc3ncc(C#N)c(Nc4cccc(Br)c4)c3c2)C1 [Example 78, 1-Methyl-1,2,5,6-tetrahydro-pyridine-3-carboxylic acid [4-(3-bromo-phenylamino)-3-cyano-quinolin-6-yl]-amide]		40000	53	0.369 (≈ 0.798 µM)	3.19 (≈ 6.91 µM)	1.5 (≈ 3.23 µM)	> 5	IC50 [2]: > 21300 nM
C=CCN(CC=C)CC=CC(=O)Nc1cc2c(Nc3ccc(F)c(Cl)c3)c(C#N)cnc2cc1OC [Example 103, 4-Diallylamino-but-2-enoic acid [4-(3-chloro-4-fluoro-phenylamino)-3cyano-7-methoxy-quinolin-6-yl]-amide]	8							
C=CCN(C)CC#CC(=O)Nc1ccc2ncc(C#N)c(Nc3cccc(Br)c3)c2c1 [Example 77, N-[4-[(3-Bromophenyl)amino]-3-cyano-6-quinolinyl]-4-(N-allyl-N-methylamino)-2-butynamide]	6	> 100000	105	0.03 (≈ 0.0632 µM)	0.1 (≈ 0.211 µM)	0.02 (≈ 0.0422 µM)	0.1 (≈ 0.211 µM)	IC50 ([2]; IC50 = concentration that inhibits substrate phosphorylation by 50%): 42200 nM
CCOc1c(Nc2ccc3ncc(C#N)c(Nc4cccc(Br)c4)c3c2)c(=O)c1=O [Example 85, 4-(3-Bromo-phenylamino)-6-(2-ethoxy-3,4-dioxo-cyclobut-1-enylamino)-quinoline-3-carbonitrile]			87	4.91 (≈ 10.6 µM)	27.6 (≈ 59.6 µM)	1.74 (≈ 3.76 µM)	18 (≈ 38.8 µM)	IC50 (Mek and Erk; read-out: Mek and Erk; coupled MEK 1 / ERK2; separate entries = separate tests): 1800 nM
COc1cc2ncc(C#N)c(Nc3ccc(F)c(Cl)c3)c2cc1NC(=O)C=CCN1CCSCC1 [Example 107, 4-Thiomorpholin-4-yl-but-2-enoic acid [4-(3-chloro-4-fluoro-phenylamino)-3-cyano-7-methoxy-quinolin-6-yl]-amide]	500							
COc1cc2ncc(C#N)c(Nc3ccc(F)c(Cl)c3)c2cc1NC(=O)C=CC[n+]1csc(C)c1 [Example 95, 3-{3-[4-(3-Chloro-4-fluoro-phenylamino)-3-cyano-7-methoxy-quinolin-6-ylcarbamoyl]-allyl}-5-methyl-thiazol-3-ium bromide]	5							
COc1cc2ncc(C#N)c(Nc3ccc(F)c(Cl)c3)c2cc1NC(=O)C=CCN1CCOCCOCCOCC1 [Example 109, 4-(1,4,7-Trioxa-10-aza-cyclododec-10-yl)-but-2-enoic acid [4-(3-chloro-4-fluoro-phenylamino)-3-cyano-7-methoxy-quinolin-6-yl]-amide]	7							
COC[C@@H]1CCCN1CC#CC(=O)Nc1ccc2ncc(C#N)c(Nc3cccc(Br)c3)c2c1 [Example 79, 4-((2S)-2-Methoxymethylpyrrolidin-1-yl)but-2-ynoic Acid [4-(3-bromophenylamino)-3-cyanquinolin-6-yl]amide]	0.36			0.04 (≈ 0.0772 µM)	0.3 (≈ 0.579 µM)	0.01 (≈ 0.0193 µM)	0.1 (≈ 0.193 µM)	
COc1cc2ncc(C#N)c(Nc3ccc(F)c(Cl)c3)c2cc1NC(=O)C=CCN1CCC(O)(O)CC1 [Example 119, 4-(4,4-Dihydroxy-piperidin-1-yl)-but-2-enoic acid [4-(3-chloro-4-fluoro-phenylamino)-3-cyano-7-methoxy-quinolin-6-yl]-amide]	0.05							
COc1cc2ncc(C#N)c(Nc3ccc(F)c(Cl)c3)c2cc1NC(=O)C=CCN(CCO)CCO [Example 106, 4-[Bis-(2-hydroxy-ethyl)-amino]-but-2-enoic acid [4-(3-chloro-4-fluoro-phenylamino)-3-cyano-7-methoxy-quinolin-6-yl]-amide]	13							
